From ChEMBL document CHEMBL1201862, “PubChem BioAssay data set” (2004)
Blank lines part the entries; values can stand above or below the compound they belong to. The source made the active and inactive calls.

Legend:
SUMO-activating enzyme = SUMO-activating enzyme (Homo sapiens, UniProt Q9UBT2); experiment: blockers of UBC9-mediated SUMO conjugation – biochemical, AlphaScreen, SUMOylation inhibitor project, confirmation (AID 2018); type: functional
[1] = target: T1, Runt-related transcription factor 1/Core-binding factor subunit beta (Homo sapiens, UniProt Q01196+Q13951); experiment: disruptors of Runt domain/CBFb-SMMHC interaction – biochemical, FRET, Cerulean-Runt, Venus-CBFb-SMMHC, uHTS, […] (AID 1434); type: protein assay
T1 sequence (Q01196 whole entry, the tested form may be a part): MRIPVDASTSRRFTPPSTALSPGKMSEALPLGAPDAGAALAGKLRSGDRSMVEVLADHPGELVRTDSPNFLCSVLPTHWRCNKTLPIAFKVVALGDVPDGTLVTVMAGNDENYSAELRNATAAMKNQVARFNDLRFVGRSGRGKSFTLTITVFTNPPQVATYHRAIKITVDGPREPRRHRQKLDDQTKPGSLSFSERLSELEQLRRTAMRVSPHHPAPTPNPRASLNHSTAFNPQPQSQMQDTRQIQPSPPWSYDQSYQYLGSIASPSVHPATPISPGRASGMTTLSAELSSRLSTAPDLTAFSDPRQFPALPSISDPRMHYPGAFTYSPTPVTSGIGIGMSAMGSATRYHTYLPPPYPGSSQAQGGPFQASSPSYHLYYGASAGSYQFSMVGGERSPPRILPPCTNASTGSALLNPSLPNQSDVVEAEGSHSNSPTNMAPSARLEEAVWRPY
T1 sequence (Q13951 whole entry, the tested form may be a part): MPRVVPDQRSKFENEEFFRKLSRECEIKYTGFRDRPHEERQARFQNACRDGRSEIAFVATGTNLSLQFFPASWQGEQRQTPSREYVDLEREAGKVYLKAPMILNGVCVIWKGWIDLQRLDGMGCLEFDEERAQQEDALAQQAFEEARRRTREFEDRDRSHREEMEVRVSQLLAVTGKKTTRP

[2] = target: T1, Runt-related transcription factor 1/Core-binding factor subunit beta; experiment: Runt domain/CBFb-SMMHC interaction disruptors – biochemical, TR-FRET (AID 1438); type: protein assay
[3] = viability of PTEN-deleted HCT116 cells – cell-based, HCT116 PTEN knockout, dose response (AID 1047); type: functional;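 note: HCT116 colon tumor cells with PTEN knocked out; cells exposed to compound for 60 hours before readout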
[4] = viability of HCT116 lacking mutant beta-catenin – cell-based, human colon tumor, dose response (AID 1045); type: functional;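 note: HCT116 colon tumor cells with beta catenin knocked out; cells exposed to compound for 60 hours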
[5] = target: T2, Microphthalmia-associated transcription factor (Homo sapiens, UniProt O75030); experiment: reducers of TRPM1 reporter luminescence, concentration series – cell-based, SK-MEL-5, cherry-picked, set 3, MITF inhibitor project, dose response (AID 493073); type: functional;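 note: SK-MEL-5 melanoma cells with luciferase driven by the MITF target TRPM1 promoter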
T2 sequence (O75030 whole entry): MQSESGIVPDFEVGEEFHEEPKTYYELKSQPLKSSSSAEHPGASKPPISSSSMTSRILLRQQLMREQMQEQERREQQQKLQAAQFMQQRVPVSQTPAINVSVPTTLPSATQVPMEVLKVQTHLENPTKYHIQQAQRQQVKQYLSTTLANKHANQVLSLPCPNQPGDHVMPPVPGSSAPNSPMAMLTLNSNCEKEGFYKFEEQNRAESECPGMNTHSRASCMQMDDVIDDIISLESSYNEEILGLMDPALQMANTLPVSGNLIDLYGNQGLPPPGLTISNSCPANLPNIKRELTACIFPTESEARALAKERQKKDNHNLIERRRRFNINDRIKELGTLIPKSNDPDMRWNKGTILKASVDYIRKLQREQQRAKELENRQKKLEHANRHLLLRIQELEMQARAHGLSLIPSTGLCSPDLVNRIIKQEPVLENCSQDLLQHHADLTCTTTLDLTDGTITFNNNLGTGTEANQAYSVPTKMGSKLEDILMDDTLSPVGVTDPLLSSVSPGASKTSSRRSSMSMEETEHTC

CHO = CHO cell viability loss, potency – luminescence, cytotoxicity control for TLR9-MyD88 binding inhibitor project, dose response (AID 588339); type: functional, cell-based, hamster; conditions: Cricetulus griseus;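 note: CHO cells stably coexpressing TLR9 and MyD88 fusions from primary screen; compound exposure lasted 48 hours before viability readout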
Beta Lactamase = Beta Lactamase (Pseudomonas aeruginosa, UniProt Q932Y6); experiment: BLA reporter interference, concentration series – BLA reporter cells, FRET fluorescence, artefact control for TLR9-MyD88 binding inhibitor project, dose response (AID 588341); type: cell-based;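 note: cell based assay in CHO-K1 cells stably expressing beta-lactamase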
Beta Lactamase, sequence (Q932Y6 whole entry): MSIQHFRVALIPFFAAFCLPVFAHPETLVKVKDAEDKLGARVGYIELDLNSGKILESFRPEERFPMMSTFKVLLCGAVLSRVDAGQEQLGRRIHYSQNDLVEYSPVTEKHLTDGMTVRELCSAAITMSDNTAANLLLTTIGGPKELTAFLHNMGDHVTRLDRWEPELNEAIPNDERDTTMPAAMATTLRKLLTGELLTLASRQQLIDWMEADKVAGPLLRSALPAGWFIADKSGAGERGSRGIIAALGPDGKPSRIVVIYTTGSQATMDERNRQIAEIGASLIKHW

Kallikrein-7 = Kallikrein-7 (Homo sapiens, UniProt P49862); experiment: Fluorescence Intensity-based biochemical primary high throughput dose response assay to identify activators of kallikrein-7 (K7) zymogen.
Kallikrein-7, sequence (P49862 whole entry): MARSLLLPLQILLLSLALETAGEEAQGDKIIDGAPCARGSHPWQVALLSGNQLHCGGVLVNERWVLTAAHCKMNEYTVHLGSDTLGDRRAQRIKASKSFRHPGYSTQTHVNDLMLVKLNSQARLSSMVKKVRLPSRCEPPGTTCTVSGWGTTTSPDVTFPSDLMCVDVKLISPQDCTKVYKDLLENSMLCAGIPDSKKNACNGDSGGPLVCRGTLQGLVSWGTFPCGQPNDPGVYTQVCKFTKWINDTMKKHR

[6] = target: T3, G-protein coupled receptor 35 (Homo sapiens, UniProt Q9HC97); experiment: SAR analysis of Agonists of the GPR35 Receptor using an Image-Based Assay - Set 4. [Related pubchem assays (depositor defined):AID2013, AID2026]; type: functional
T3 sequence (Q9HC97 whole entry): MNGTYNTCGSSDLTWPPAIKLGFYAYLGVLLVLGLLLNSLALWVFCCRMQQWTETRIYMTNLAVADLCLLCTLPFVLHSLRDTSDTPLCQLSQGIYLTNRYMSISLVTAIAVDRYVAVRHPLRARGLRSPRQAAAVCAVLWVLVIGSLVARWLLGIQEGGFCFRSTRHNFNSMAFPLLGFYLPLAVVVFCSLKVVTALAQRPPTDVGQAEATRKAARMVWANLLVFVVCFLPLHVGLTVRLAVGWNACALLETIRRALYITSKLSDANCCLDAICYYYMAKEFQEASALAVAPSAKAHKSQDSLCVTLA

Cannabinoid receptor 1 [7] = target: T4, Cannabinoid receptor 1 (Homo sapiens, UniProt P21554); experiment: SAR analysis of agonists of the Cannabinoid Receptor 1 using an Image-Based Assay - Set 4. [Related pubchem assays (depositor defined):AID2013, AID2026]; type: functional
T4 sequence (P21554 whole entry): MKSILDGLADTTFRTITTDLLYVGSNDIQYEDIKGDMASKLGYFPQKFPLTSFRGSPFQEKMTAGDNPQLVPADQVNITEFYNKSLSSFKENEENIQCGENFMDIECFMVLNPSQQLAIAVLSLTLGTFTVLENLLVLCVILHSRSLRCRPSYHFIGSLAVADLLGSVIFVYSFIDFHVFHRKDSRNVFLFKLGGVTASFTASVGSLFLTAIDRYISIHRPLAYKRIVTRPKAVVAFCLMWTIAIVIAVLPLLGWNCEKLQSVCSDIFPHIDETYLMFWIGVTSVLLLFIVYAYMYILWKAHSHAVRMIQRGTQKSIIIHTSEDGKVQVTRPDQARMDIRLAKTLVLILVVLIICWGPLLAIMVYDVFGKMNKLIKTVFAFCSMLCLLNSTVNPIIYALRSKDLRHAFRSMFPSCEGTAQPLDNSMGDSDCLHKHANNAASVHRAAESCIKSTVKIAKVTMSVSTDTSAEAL

[8] = target: T3, G-protein coupled receptor 35; experiment: SAR analysis of Antagonists of the GPR35 Receptor using an Image-Based Assay - Set 6. [Related pubchem assays (depositor defined):AID2013, AID2026]; type: functional
Cannabinoid receptor 1 [9] = target: T4, Cannabinoid receptor 1; experiment: SAR analysis of antagonists of the Cannabinoid Receptor 1 using an Image-Based Assay - Set 4. [Related pubchem assays (depositor defined):AID2013, AID2026]; type: functional
[10] = target: G-protein coupled receptor 55 (Homo sapiens, UniProt Q9Y2T6); experiment: SAR Analysis of Selective Antagonists of GPR55 using an Image-Based Assay - Set 4. [Related pubchem assays (depositor defined):AID2013, AID2026]; type: functional;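 note: antagonism of response to 5 µM lysophosphatidylinositol agonist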
G-protein coupled receptor 55, sequence (Q9Y2T6 whole entry): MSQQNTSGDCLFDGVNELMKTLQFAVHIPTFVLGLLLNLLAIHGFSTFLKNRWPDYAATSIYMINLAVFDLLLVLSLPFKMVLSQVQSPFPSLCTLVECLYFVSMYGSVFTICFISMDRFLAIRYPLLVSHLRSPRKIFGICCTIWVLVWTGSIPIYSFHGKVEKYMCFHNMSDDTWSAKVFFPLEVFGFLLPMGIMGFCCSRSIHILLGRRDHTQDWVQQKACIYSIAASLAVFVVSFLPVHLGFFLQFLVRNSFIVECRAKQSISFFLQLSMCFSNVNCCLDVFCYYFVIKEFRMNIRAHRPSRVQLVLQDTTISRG

Cannabinoid receptor 2 [11] = target: T5, Cannabinoid receptor 2 (Homo sapiens, UniProt P34972); experiment: SAR analysis of antagonists of the Cannabinoid Receptor 2 using an Image-Based Assay - Set 3. [Related pubchem assays (depositor defined):AID2013, AID2026]; type: functional
T5 sequence (P34972 whole entry): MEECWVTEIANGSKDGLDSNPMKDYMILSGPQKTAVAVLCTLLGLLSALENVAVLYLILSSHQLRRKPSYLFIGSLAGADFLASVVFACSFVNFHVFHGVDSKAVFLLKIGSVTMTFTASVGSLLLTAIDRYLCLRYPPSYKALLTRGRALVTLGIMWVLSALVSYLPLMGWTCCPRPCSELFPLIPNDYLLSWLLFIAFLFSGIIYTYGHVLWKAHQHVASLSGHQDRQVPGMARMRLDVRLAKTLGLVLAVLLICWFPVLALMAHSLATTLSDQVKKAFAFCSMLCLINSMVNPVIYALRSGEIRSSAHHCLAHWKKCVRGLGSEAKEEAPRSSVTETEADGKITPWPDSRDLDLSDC

Cannabinoid receptor 2 [12] = target: T5, Cannabinoid receptor 2; experiment: SAR analysis of agonists of the Cannabinoid Receptor 2 using an Image-Based Assay - Set 3. [Related pubchem assays (depositor defined):AID2013, AID2026]; type: functional
Cytochrome P450 2C19 = Cytochrome P450 2C19 (Homo sapiens, UniProt P33261); experiment: Cytochrome panel assay with activity outcomes. Panel member name: p450-cyp2c19 Compounds with AC50 equal or less than 10 uM are considered active; type: functional; conditions: read-out: AC50
Cytochrome P450 2D6 = Cytochrome P450 2D6 (Homo sapiens, UniProt P10635);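 note: CYP2D6 member of a cytochrome P450 panel assay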
Cytochrome P450 2D6, sequence (P10635 whole entry): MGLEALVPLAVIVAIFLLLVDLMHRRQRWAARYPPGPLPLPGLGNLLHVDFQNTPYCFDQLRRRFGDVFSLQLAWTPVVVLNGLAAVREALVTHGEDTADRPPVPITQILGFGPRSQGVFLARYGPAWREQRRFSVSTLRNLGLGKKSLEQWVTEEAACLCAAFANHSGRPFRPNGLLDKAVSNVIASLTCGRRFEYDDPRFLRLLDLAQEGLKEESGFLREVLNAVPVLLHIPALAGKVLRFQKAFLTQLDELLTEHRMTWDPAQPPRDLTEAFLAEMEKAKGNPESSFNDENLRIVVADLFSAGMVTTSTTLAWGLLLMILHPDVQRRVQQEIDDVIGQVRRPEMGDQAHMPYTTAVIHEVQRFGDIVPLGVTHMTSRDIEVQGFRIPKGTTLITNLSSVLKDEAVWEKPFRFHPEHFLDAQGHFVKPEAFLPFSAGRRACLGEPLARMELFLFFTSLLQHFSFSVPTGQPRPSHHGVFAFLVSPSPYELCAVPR

[13] = target: Lysosomal acid glucosylceramidase (Homo sapiens, UniProt P04062); experiment: Dose response cell-based high throughput screening assay to identify enhancers of beta-glucosidase activity. [Related pubchem assays: 784 ]; type: functional
[14] = target: Mitogen-activated protein kinase 10 (Homo sapiens, UniProt P53779); experiment: Dose response biochemical screening assay for inhibitors of c-Jun N-Terminal Kinase 3 (JNK3). [Related pubchem assays: 746 ]
Coagulation factor XII = target: T6, Coagulation factor XII (Homo sapiens, UniProt P00748); experiment: Factor XIIa Dose Response Confirmation from Single Well HTS. [Related pubchem assays (depositor defined):AID701]; type: functional
T6 sequence (P00748 whole entry): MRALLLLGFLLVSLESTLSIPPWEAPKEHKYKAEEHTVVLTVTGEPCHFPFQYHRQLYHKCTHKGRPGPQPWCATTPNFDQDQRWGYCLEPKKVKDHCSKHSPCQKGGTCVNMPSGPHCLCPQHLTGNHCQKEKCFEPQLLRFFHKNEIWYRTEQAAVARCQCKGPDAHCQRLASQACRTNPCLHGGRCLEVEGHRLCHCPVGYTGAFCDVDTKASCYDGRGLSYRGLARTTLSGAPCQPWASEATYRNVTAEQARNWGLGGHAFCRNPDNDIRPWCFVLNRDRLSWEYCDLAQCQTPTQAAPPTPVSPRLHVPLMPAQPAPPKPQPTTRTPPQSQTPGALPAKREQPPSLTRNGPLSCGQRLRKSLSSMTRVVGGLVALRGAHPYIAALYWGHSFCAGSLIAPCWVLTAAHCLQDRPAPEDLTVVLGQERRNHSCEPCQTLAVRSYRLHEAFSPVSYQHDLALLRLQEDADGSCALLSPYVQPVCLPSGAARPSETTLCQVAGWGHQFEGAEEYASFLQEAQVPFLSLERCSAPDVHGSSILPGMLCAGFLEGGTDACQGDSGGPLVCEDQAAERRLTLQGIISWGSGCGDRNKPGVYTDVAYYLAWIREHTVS

[15] = target: T7, Type-1 angiotensin II receptor (Homo sapiens, UniProt P30556); experiment: agonist activity at AGTR1 – cell-based, uHTS hits, selectivity assay for APJ receptor agonist project, dose response (AID 488865); type: functional;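 note: beta-arrestin recruitment to AT1 measured by enzyme fragment complementation luminescence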
T7 sequence (P30556 whole entry): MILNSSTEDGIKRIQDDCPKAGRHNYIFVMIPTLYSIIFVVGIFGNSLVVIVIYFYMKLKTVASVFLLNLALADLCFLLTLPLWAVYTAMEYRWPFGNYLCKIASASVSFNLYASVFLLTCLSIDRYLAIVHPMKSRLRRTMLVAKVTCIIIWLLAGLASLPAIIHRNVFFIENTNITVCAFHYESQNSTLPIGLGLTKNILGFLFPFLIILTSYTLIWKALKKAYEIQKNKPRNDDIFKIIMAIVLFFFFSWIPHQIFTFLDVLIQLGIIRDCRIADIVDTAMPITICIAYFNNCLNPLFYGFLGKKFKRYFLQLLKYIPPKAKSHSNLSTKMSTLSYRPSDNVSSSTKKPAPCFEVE

[16] = target: T8, E3 ubiquitin-protein ligase XIAP (Homo sapiens, UniProt P98170); experiment: Counter Screen using XIAP-Bir3 for Chemical Antagonists of Bir1/2 domains of IAP-family anti-apoptotic proteins. [Related pubchem assays (depositor defined):AID1018, AID1449, AID1514, AID1638, AID1749, AID1750, AID488957, AID488963]
T8 sequence (P98170 whole entry): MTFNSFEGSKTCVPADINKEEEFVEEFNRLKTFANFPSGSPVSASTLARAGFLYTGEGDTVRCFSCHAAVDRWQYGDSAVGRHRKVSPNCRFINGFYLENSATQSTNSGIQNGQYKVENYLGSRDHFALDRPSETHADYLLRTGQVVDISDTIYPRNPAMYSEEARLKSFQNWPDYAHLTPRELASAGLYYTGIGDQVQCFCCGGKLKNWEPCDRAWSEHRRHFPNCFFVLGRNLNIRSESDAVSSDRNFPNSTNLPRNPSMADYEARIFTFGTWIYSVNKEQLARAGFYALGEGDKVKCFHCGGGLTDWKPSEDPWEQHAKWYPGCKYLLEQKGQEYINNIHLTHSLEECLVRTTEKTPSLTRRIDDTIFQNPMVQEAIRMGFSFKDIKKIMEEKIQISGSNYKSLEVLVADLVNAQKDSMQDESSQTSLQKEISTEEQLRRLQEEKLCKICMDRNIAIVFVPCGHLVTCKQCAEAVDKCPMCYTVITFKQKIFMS

[17] = target: T8, E3 ubiquitin-protein ligase XIAP; experiment: small molecules displacing peptide from XIAP – biochemical, IAP family, fluorescence polarization (AID 1018); type: functional
Mu-type opioid receptor = Mu-type opioid receptor (Homo sapiens, UniProt P35372); experiment: SAR Analysis of Antagonists of the MOR Receptor using an Image-Based Assay - Set 3. [Related pubchem assays (depositor defined):AID1777, AID1785, AID1786, AID1966, AID2133, AID2136, AID2284, AID2285, AID2420]; type: functional
Mu-type opioid receptor, sequence (P35372 whole entry): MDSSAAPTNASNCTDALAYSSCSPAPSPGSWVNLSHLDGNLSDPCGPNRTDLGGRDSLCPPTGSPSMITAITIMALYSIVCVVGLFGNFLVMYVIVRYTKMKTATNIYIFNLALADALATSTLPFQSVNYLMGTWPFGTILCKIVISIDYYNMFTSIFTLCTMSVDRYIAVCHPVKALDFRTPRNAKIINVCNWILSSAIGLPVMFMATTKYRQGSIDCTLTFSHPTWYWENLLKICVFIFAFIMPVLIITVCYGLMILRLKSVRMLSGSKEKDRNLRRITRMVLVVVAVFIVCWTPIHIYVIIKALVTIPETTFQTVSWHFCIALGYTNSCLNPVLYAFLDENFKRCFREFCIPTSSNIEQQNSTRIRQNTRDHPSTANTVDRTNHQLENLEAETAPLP

[18] = target: T9, Kappa-type opioid receptor (Homo sapiens, UniProt P41145); experiment: SAR analysis of small molecule antagonists of the kappa opioid receptor via a luminescent beta-arrestin assay - Set 6. [Related pubchem assays (depositor defined):AID1777, AID1778, AID1785, AID1786, AID1966, AID2133, AID2136, AID2285]; type: functional
T9 sequence (P41145 whole entry): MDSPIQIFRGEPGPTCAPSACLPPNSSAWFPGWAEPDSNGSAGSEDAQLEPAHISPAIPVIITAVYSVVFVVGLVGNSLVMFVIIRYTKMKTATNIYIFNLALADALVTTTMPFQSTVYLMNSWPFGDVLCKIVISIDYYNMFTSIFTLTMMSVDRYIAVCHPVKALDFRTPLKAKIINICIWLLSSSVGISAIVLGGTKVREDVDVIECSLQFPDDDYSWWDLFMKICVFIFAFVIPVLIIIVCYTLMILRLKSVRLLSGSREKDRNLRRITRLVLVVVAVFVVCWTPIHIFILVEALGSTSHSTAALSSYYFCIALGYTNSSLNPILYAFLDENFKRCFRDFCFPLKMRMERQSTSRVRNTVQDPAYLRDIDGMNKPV

[19] = target: Delta-type opioid receptor (Homo sapiens, UniProt P41143); experiment: SAR Analysis of Antagonists of the DOR Receptor using an Image-Based Assay - Set 3. [Related pubchem assays (depositor defined):AID1777, AID1785]; type: functional;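 note: U2OS cells expressing DOR1 and beta-arrestin GFP stimulated with 100 nM SNC80; imaging of GFP-tagged beta-arrestin moving into spots after receptor activation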
Delta-type opioid receptor, sequence (P41143 whole entry): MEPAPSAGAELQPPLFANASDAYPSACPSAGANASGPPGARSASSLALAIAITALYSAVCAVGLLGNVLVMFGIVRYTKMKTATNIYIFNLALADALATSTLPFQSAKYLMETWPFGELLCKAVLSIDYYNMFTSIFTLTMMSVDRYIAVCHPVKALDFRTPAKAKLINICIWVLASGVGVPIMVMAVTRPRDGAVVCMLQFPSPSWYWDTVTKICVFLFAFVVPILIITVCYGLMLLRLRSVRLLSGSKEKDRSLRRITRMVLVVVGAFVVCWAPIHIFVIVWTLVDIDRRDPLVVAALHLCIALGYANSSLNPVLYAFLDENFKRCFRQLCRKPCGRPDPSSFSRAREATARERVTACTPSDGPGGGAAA

[20] = target: T9, Kappa-type opioid receptor; experiment: SAR analysis of small molecule antagonists of the kappa opioid receptor via a luminescent beta-arrestin assay - Set 3. [Related pubchem assays (depositor defined):AID1777, AID1778, AID1785, AID1786, AID1966, AID2133, AID2136, AID2285, AID2495]; type: functional
[21] = target: T9, Kappa-type opioid receptor; experiment: SAR analysis of Antagonists of the Kappa Opioid Receptor (KOR) using an Image-Based Assay - Set 4. [Related pubchem assays (depositor defined):AID1777, AID1785]; type: functional
[22] = target: Voltage-dependent T-type calcium channel subunit alpha-1H (Homo sapiens, UniProt O95180); experiment: human CACNA1H calcium influx blockade – cell-based, synthetic library set 2, HEK293 HH8, Fluo-4, SAR follow-up (AID 493023); type: functional

IC50 (SUMO-activating enzyme): 9.8 µM (active)
SMILES: COc1ccc(NC2=NC(=O)/C(=C\c3ccco3)S2)cc1

SMILES: OCCNc1c2ccccc2nc2c(F)c(F)c(F)c(F)c12
IC50 [1]: 38.7 µM (active)
IC50 [2]: > 100 µM (inactive)
EC50 [3]: 3.83 µM (active)
EC50 [4]: 2.16 µM (active)
AC50 [5]: 4.14 µM (active)
IC50 (CHO): 3.97 µM (active)
IC50 (Beta Lactamase): 2.27 µM (active)
EC50 (Kallikrein-7): > 69.5 µM (inactive)

EC50 [6]: > 32 µM (inactive)
EC50 (Cannabinoid receptor 1 [7]): > 32 µM (inactive)
IC50 [8]: > 32 µM (inactive)
IC50 (Cannabinoid receptor 1 [9]): > 32 µM (inactive)
IC50 [10]: > 32 µM (inactive)
IC50 (Cannabinoid receptor 2 [11]): > 32 µM (inactive)
EC50 (Cannabinoid receptor 2 [12]): > 32 µM (inactive)
AC50 (Cytochrome P450 2C19): 11.2 µM (inconclusive)
AC50 (Cytochrome P450 2D6): 3.55 µM (inconclusive)
SMILES: N=c1c(C(=O)NC2CCCC2)cc2c(=O)n3ccccc3nc2n1C1CCCC1

EC50 [13]: > 10 µM (not active)
IC50 [14]: 19.2 µM (not active)
IC50 (Coagulation factor XII): 2.6 µM (active)
SMILES: COc1ccc(C(=O)n2nc(-c3ccccc3)nc2N)cc1OC

EC50 [15]: > 100 µM (inactive)
SMILES: CCSc1nc(O)c(CC)c(=O)n1C(C)CC (stereo not given)

IC50 [16]: > 100 µM (inactive)
IC50 [17]: > 100 µM (not active)
SMILES: Cc1ccc(-c2cc(C(=O)NC3=NCCS3)c3ccccc3n2)cc1C

IC50 (Mu-type opioid receptor): 17.2 µM (inactive)
IC50 [18]: 0.482 µM (active)
IC50 [19]: > 32 µM (inactive)
IC50 [20]: 0.369 µM (active)
IC50 [21]: 0.0451 µM (active)
SMILES: Cc1ccnc2c1n1cccc1c(=O)n2CC(=O)NCCCN1CCN(c2ccc3c(c2)OCO3)CC1

EC50 [22]: 10 µM (active)
SMILES: O=C(COc1ccc(F)cc1Cl)N[C@H]1CCCN(Cc2ccccc2)C1
